Data as given in publication PMC5883364 (Malaria Journal, 2018).
Values joined by “and” are separate entries in the source; they are usually repeats but may differ in a detail not shown here. Identical values can stand only once. “Also recorded” adds a separate entry of the source. Like-named read-outs stand apart in the source and are kept apart here.

Key:
[1] = tested on: P. falciparum Dd2 (chloroquine-resistant, mefloquine-resistant); assay: SYBR Green I assay, IC50, strain Dd2; type: cell-based, Plasmodium falciparum; conditions: for IC50: read-out: P. falciparum IC50 ± SD, Dd2; for Resistance Index RIa = IC50 (Dd2)/IC50 (3D7): Dd2 vs 3D7
Method: (§1) Staging and parasitaemia were determined by light microscopy of Giemsa-stained thin blood smears. Anti-malarial activity was determined using the SYBR Green I assay, as previously described.

[2] = tested on: P. falciparum 3D7 (chloroquine and mefloquine sensitive); assay: SYBR Green I assay, IC50, strain 3D7; type: cell-based, Plasmodium falciparum; conditions: read-out: P. falciparum IC50 ± SD, 3D7
Method: as §1

[3] = tested on: HepG2-A16 (human hepatoma) cells; conditions: for LD50 HepG2: human, 48 h; for Selectivity index LD50 (HepG2)/IC50 (3D7): HepG2 vs 3D7; for Selectivity index LD50 (HepG2)/IC50 (Dd2): HepG2 vs Dd2; for Selectivity index LD50 (HepG2)/IC50 (IPC4912): HepG2 vs IPC4912; for Selectivity index LD50 (HepG2)/IC50 (IPC5202): HepG2 vs IPC5202
Method: (§2) Cytotoxicity was assessed on the mammalian cell lines HepG2-A16 (human hepatoma) and V79 (Chinese hamster lung), using a MTT based assay, as previously described. […] V79 and HepG2 cell lines were incubated for 24 and 48 h, respectively (media changed at 24 h intervals). Absorbance was read at 570 nm on a multi-mode microplate reader (Triad, Dynex Technologies), to produce a log dose-dependence curve. The LD50 value for each compound was estimated by non-linear interpolation of the dose-dependence curve (GraphPad Software).

[4] = tested on: V79 (Chinese hamster lung) cells; conditions: for LD50 V79: Chinese hamster, 24 h; for Selectivity index LD50 (V79)/IC50 (3D7): V79 vs 3D7; for Selectivity index LD50 (V79)/IC50 (Dd2): V79 vs Dd2; for Selectivity index LD50 (V79)/IC50 (IPC4912): V79 vs IPC4912; for Selectivity index LD50 (V79)/IC50 (IPC5202): V79 vs IPC5202
Method: as §2

[5] = tested on: P. falciparum IPC5202 (artemisinin-resistant, K13 R539T); assay: SYBR Green I assay, IC50, strain IPC5202; type: cell-based, Plasmodium falciparum; conditions: for Resistance Index RIb = IC50 (IPC5202)/IC50 (3D7): IPC5202 vs 3D7; for IC50: Plasmodium falciparum, read-out: P. falciparum IC50 ± SD, IPC5202, strain IPC5202
Method: as §1

[6] = tested on: P. falciparum IPC4912 (artemisinin-resistant, K13 I543T); assay: SYBR Green I assay, IC50, strain IPC4912; type: cell-based, Plasmodium falciparum; conditions: for Resistance Index RIc = IC50 (IPC4912)/IC50 (3D7): IPC4912 vs 3D7; for IC50: Plasmodium falciparum, read-out: P. falciparum IC50 ± SD, IPC4912
Method: Staging and parasitaemia were determined by light microscopy of Giemsa-stained thin blood smears. Anti-malarial activity was determined using the SYBR Green I assay, as previously described. Briefly, early ring stage parasites (> 80% of rings) were challenged with a 1:3 serial dilution of each compound, in concentrations ranging from 10,000–0.169 nM. Fluorescence intensity was measured with a multi-mode microplate reader (Triad, Dynex Technologies), with excitation and emission wavelengths of 485 and 535 nm, respectively, and analysed by nonlinear regression using GraphPad Prism to determine IC50 values.

[7] = Solubility remark in the IC50 table; type: physicochemical; design: key: ?: Low solubility; conditions: symbol printed in the IC50 cells
Excerpt: Supplement 12936_2018_2281_MOESM1_ESM.docx, table 1: Table 1: Antiplasmodial activity in vitro (IC50) against resistant and sensitive P. falciparum strains. | column: P. falciparum IC50 ± SD (nM)

[8] = tested on: P. falciparum 3D7 ring-stage parasites; assay: Ring-stage survival assay (RSA), 3D7; type: cell-based, Plasmodium falciparum; conditions: 6 h pulse, 10 x IC50 (DHA 700 nM), ART-S strain 3D7
Method: (§3) Ring-stage survival assays (RSA) were carried out as described in [21], with modifications. Parasite cultures were synchronized once, with 5% sorbitol, and in the next reinvasion cycle, twice, with a 6 h interval. […] Then, plates were centrifuged and supernatant replaced by drug-free culture media. After additional incubation during 66 h for ring-stage, and 42 h for mature-stage, susceptibility was assessed microscopically on Giemsa-stained thin blood smears by estimating the percentage of viable parasites that developed into a second generation of rings or trophozoites.

[9] = tested on: P. falciparum IPC5202 ring-stage parasites; assay: Ring-stage survival assay (RSA), IPC5202; type: cell-based, Plasmodium falciparum; conditions: 6 h pulse, 10 x IC50 (DHA 700 nM), ART-R strain IPC5202
Method: as §3

[10] = tested on: Plasmodium berghei NK65; assay: Peters' 4-day suppressive test in Swiss albino mice; type: in vivo; conditions: for in vivo outcome against P. berghei in words: followed to day 10; for inhibition in vivo at 50 mg/kg/day: Plasmodium berghei
Method: (§4) In vivo tests were performed following the Guidelines for Ethical Conduct in The Care and Use of Animals of the Federal University of Rio Grande do Norte—Brazil (CEUA/UFRN/46/2013). Evaluation of anti-malarial activity in vivo was carried out using the Peters’ 4-day suppressive test, with modifications, as previously described. Swiss albino mice were infected with Plasmodium berghei NK65 and randomly allocated to groups of five animals. Animals were treated with 50 mg/kg/day of each of the tested compounds (dissolved in PBS containing 1% DMSO), administrated orally, for four consecutive days. The control group was treated with a solution of PBS/1% DMSO. On days 5 (D5), 7 (D7) and 10 (D10) after parasite inoculation, tail blood smears were Giemsa-stained and examined microscopically to estimate parasitaemia. Acute toxicity testing was carried out to determine adverse effects due to compounds (including weight loss, hair appearance, skin wounds and behavioural changes), and recorded daily.

[11] = tested on: Swiss albino mice; assay: Acute toxicity observation in treated mice; type: in vivo; conditions: 50 mg/kg/day oral, monitored daily
Method: as §4

[12] = Plasmodium falciparum, DD2, strain Dd2
[13] = Plasmodium falciparum, 3D7, strain 3D7
[14] = mice, 50 mg/kg/day oral for 4 days, day 5
[15] = mice, 50 mg/kg/day oral for 4 days

SMILES | IC50 [1, 12] [nM] | IC50 [2, 13] [nM] | LD50 HepG2 [3] [mM] | LD50 V79 [4] [mM] | Resistance Index RIb = IC50 (IPC5202)/IC50 (3D7) [5] | IC50 [5] [nM] | Resistance Index RIc = IC50 (IPC4912)/IC50 (3D7) [6] | IC50 [6] [nM] | Selectivity index LD50 (HepG2)/IC50 (3D7) [3] | Selectivity index LD50 (HepG2)/IC50 (Dd2) [3] | Selectivity index LD50 (V79)/IC50 (3D7) [4] | Selectivity index LD50 (V79)/IC50 (Dd2) [4] | further results
O=S1(=O)N=C(Cl)c2ccccc21 [LC60, 3-chloro-1,2-benzisothiazole-1,1-dioxide] | > 10000 | > 10000 | 1.0 | > 1 | – | – | – | – | – | – | – | – | –
CC(C)(C)OC(=O)NCCCCN [LC64, tert-butyl(4-aminobutyl)carbamate] | > 10000 | > 10000 | 1.0 | > 1 | – | – | – | – | – | – | – | – | –
C[C@@H]1CC[C@H]2[C@@H](C)C(=O)O[C@@H]3O[C@@]4(C)CC[C@@H]1[C@]32OO4 [ART, artemisinin, reference compound] | 2.5 ± 0.1 | 4 ± 0.1 | 0.4 | > 0.4 | 8.32 | 33.3 ± 8 | 3.32 | 13.3 ± 2.2 | 104844.6 | 168515.4 | 104844.6 | 168515.4 | IC50 ([1]; strain Dd2): 2.47 ± 0.1 nM; IC50 ([2]; strain 3D7): 3.97 ± 0.08 nM; Selectivity index LD50 (HepG2)/IC50 (IPC4912) [3]: 31295.7; Selectivity index LD50 (HepG2)/IC50 (IPC5202) [3]: 12499.5; Selectivity index LD50 (V79)/IC50 (IPC4912) [4]: 31295.7; Selectivity index LD50 (V79)/IC50 (IPC5202) [4]: 12499.5
NCCCCNC1CCC2(CC1)OOC1(O2)C2CC3CC(C2)CC1C3 (centres unmarked) [MIS16] | – | – | 1.0 | > 1 | – | – | – | – | – | – | – | – | solubility remark (no IC50 obtained) [7]: ?
O=c1nn[nH]n1-c1ccccc1 [LC133, 1-phenyl-1H-tetrazol-5-one] | > 10000 | > 10000 | 1.0 | > 1 | – | – | – | – | – | – | – | – | antiplasmodial activity of building blocks in words ([1]; tested separately, Dd2 and 3D7 (Additional file 1)): devoid of antiplasmodial activity
C1C2CC3CC1CC(C2)C31OOC2(CCC(Nc3nnn[nH]3)CC2)OO1 (centres unmarked) [LC163] | – | < 100 | 1.0 | > 1 | 1.13 | 71.1 ± 1.1 | 0.30 | 18.6 ± 16.9 | 15873.0 | 22988.5 | 15873.0 | 22988.5 | IC50 ([2]; strain 3D7): 63 ± 0.7 nM; Selectivity index LD50 (HepG2)/IC50 (IPC4912) [3]: 53763.4; Selectivity index LD50 (HepG2)/IC50 (IPC5202) [3]: 14064.7; Selectivity index LD50 (V79)/IC50 (IPC4912) [4]: 53763.4; Selectivity index LD50 (V79)/IC50 (IPC5202) [4]: 14064.7; Ring-stage survival rate (RSA), percentage of viable parasites, 3D7 [8]: 6.9 ± 1.6% and > 1%; Ring-stage survival rate (RSA), percentage of viable parasites, IPC5202 [9]: 2.0 ± 1.9% and > 1%; in vivo outcome against P. berghei in words ([10]; 50 mg/kg/day oral for 4 days): recrudescence also occurred on day 10; inhibition in vivo at 50 mg/kg/day ([10]; 120 h, mice, 50 mg/kg/day oral for 4 days, day 5, vs control group, read-out: % inhibition of parasite growth, Day 5 (converted)): 100%; inhibition in vivo at 50 mg/kg/day ([10]; 168 h, mice, 50 mg/kg/day oral for 4 days, day 7, vs control group, read-out: % inhibition of parasite growth, Day 7 (converted)): 100%; inhibition in vivo at 50 mg/kg/day ([10]; 240 h, mice, 50 mg/kg/day oral for 4 days, day 10, vs control group, read-out: % inhibition of parasite growth, Day 10 (converted)): 96.5%; Mean parasitaemia ± SD, Day 5 [10, 14]: 0%; Mean parasitaemia ± SD, Day 7 [10, 15]: 0%; Mean parasitaemia ± SD, Day 10 [10, 15]: 0.2 ± 0.13%
c1ccc(N2N=NNC23OOC2(O3)C3CC4CC(C3)CC2C4)cc1 (centres unmarked) [LC28] | 1130 ± 188 | 3660 ± 1490 | 1.0 | > 1 | – | – | – | – | 273.3 | 887.3 | 273.3 | 887.3 | Resistance Index RIa = IC50 (Dd2)/IC50 (3D7) [1]: 0.3
NCCCCNC(=O)C1CCC2(CC1)OOC1(O2)C2CC3CC(C2)CC1C3 (centres unmarked) [MIS15] | – | – | 1.0 | > 1 | – | – | – | – | – | – | – | – | solubility remark (no IC50 obtained) [7]: ?
C[C@H]1[C@H](OC(=O)CCC(=O)O)O[C@@H]2O[C@@]3(C)CC[C@H]4[C@H](C)CC[C@@H]1[C@@]24OO3 [ATN, artesunate, reference compound] | 4.6 ± 1.4 | 5.1 ± 0.1 | – | – | 0.67 | 3.4 ± 0.1 | 0.76 | 3.9 ± 1.2 | – | – | – | – | Resistance Index RIa = IC50 (Dd2)/IC50 (3D7) [1]: 0.9
O=C(Nc1nnn[nH]1)C1CCC2(CC1)OOC1(O2)C2CC3CC(C2)CC1C3 (centres unmarked) [LC142] | 107 ± 45.4 | 117 ± 33.2 | 1.0 | > 1 | – | – | – | – | 8568.9 | 9354.5 | 8568.9 | 9354.5 | Resistance Index RIa = IC50 (Dd2)/IC50 (3D7) [1]: 0.9
CC(C)(C)OC(=O)NCCCCNC(=O)C1CCC2(CC1)OOC1(O2)C2CC3CC(C2)CC1C3 (centres unmarked) [MIS13] | – | – | 0.3 | > 1 | 0.23 | 1.7 ± 1.1 | 0.04 | 0.3 ± 0.3 | 44594.6 | 97058.8 | 135135.1 | 294117.6 | Selectivity index LD50 (HepG2)/IC50 (IPC4912) [3]: 1100000.0; Selectivity index LD50 (HepG2)/IC50 (IPC5202) [3]: 194117.6; decrease in HepG2 survival ([3]; maximum dose of 1 mM): ~30%; Selectivity index LD50 (V79)/IC50 (IPC4912) [4]: 3333333.3; Selectivity index LD50 (V79)/IC50 (IPC5202) [4]: 588235.2; in vivo outcome against P. berghei in words ([10]; 50 mg/kg/day oral for 4 days): by day 10 the five mice were cured; also recorded: totally suppressed P. berghei parasitaemia; inhibition in vivo at 50 mg/kg/day ([10]; po, 120 h, read-out: % inhibition of parasite growth, Day 5): 92.6%; inhibition in vivo at 50 mg/kg/day ([10]; po, 168 h, read-out: % inhibition of parasite growth, Day 7): 98.6%; inhibition in vivo at 50 mg/kg/day ([10]; po, 240 h, read-out: % inhibition of parasite growth, Day 10): 100%; mice presenting parasitaemia, day 5 ([10]; groups of five mice, 50 mg/kg/day oral, day 5): 1/5; Mean parasitaemia ± SD, Day 5 [10, 14]: 0.11 ± 0.19%; Mean parasitaemia ± SD, Day 7 [10, 15]: 0.05 ± 0.10%; Mean parasitaemia ± SD, Day 10 [10, 15]: 0%; adverse effects in vivo [11]: no adverse effects were observed
NCC1CCC2(CC1)OOC1(O2)C2CC3CC(C2)CC1C3 (centres unmarked) [LC95] | 56.3 ± 1 | 29.6 ± 5.18 | 1.0 | > 1 | – | – | – | – | 3441.7 | 1784.7 | 3441.7 | 1784.7 | –
